Converted amounts (≈) assume the structure as drawn.
system: Proteus mirabilis; assay: Antimicrobial activity against Proteus mirabilis JIE273 expressing 16S rRNA methyltransferase RmtC; assay type: functional

| Structure (SMILES) | MIC [µg/mL] |
| --- | --- |
| C[C@H]1[C@H](NC(=O)/C(=N\OC(C)(C)C(=O)O)c2csc(N)n2)C(=O)N1S(=O)(=O)O [AZTREONAM] | > 16 |
| CO/N=C(\C(=O)N[C@@H]1C(=O)N2C(C(=O)O)=C(COC(C)=O)CS[C@H]12)c1csc(N)n1 [CEFOTAXIME] | > 32 |
| CC(C)(O/N=C(\C(=O)N[C@@H]1C(=O)N2C(C(=O)[O-])=C(C[n+]3ccccc3)CS[C@H]12)c1csc(N)n1)C(=O)O [CEFTAZIDIME] | > 16 |
| CO/N=C(\C(=O)N[C@@H]1C(=O)N2C(C(=O)O)=C(CSc3nc(=O)c(O)nn3C)CS[C@H]12)c1csc(N)n1 [CEFTRIAXONE] | > 32 |
| CO/N=C(\C(=O)N[C@@H]1C(=O)N2C(C(=O)O)=C(COC(N)=O)CS[C@H]12)c1ccco1 [CEFUROXIME] | > 16 |
| CC(=O)OCC1=C(C(=O)O)N2C(=O)[C@@H](NC(=O)Cc3cccs3)[C@H]2SC1 [CEPHALOTHIN] | > 16 |
| CCn1cc(C(=O)O)c(=O)c2ccc(C)nc21 [NALIDIXIC ACID] | > 32 |

The remaining lines, values ahead:

| MIC [µg/mL] | Structure (SMILES) |
| --- | --- |
| > 16 | CC1(C)S[C@@H]2[C@H](NC(=O)[C@H](N)c3ccccc3)C(=O)N2[C@H]1C(=O)O [AMPICILLIN] |
| ≤ 4 | CO[C@@]1(NC(=O)Cc2cccs2)C(=O)N2C(C(=O)O)=C(COC(N)=O)CS[C@@H]21 [CEFOXITIN] |
| > 2 | O=C(O)c1cn(C2CC2)c2cc(N3CCNCC3)c(F)cc2c1=O [CIPROFLOXACIN] |
| ≤ 2 | C[C@@H](O)[C@H]1C(=O)N2C(C(=O)O)=C(SCCNC=N)C[C@H]12 [IMIPENEM ANHYDROUS] |
| > 4 | C[C@H]1COc2c(N3CCN(C)CC3)c(F)cc3c(=O)c(C(=O)O)cn1c23.C[C@H]1COc2c(N3CCN(C)CC3)c(F)cc3c(=O)c(C(=O)O)cn1c23.O [LEVOFLOXACIN] |
| 32 (≈ 83.2 µM) | CC1(C)S[C@@H]2[C@H](NC(=O)[C@H](C(=O)O)c3ccsc3)C(=O)N2[C@H]1C(=O)O [TICARCILLIN] |

From ChEMBL document CHEMBL1152992, “RmtC 16S rRNA methyltransferase in Australia” (2008)
